According to patent US8822530B2, “Sulfur derivatives as chemokine receptor modulators” (Allergan, Inc., priority 2010, dated 2014):

Biological target: T1, CCR2 receptor (Homo sapiens, UniProt P41597)
T1 construct: expressed in transfected cells
Experiment: Calcium activity assay on FLIPR Tetra in HEK-Gqi5 cells stably expressing CCR2
Assay type: cell-based
Description: HEK-Gqi5 cells stably expressing CCR2 were cultured in DMEM high glucose, 10% FBS, 1% PSA, 400 μg/ml geneticin and 50 μg/ml hygromycin. Appropriate positive control chemokines (MCP-1, MIP1A or RANTES) was used as the positive control agonist for screening compound-induced calcium activity assayed on the FLIPR^Tetra. The drug plates were prepared in 384-well microplates using the EP3 and the MultiPROBE robotic liquid handling systems. Compounds were synthesized and tested for CCR2 activity.

T1 sequence (P41597 whole entry): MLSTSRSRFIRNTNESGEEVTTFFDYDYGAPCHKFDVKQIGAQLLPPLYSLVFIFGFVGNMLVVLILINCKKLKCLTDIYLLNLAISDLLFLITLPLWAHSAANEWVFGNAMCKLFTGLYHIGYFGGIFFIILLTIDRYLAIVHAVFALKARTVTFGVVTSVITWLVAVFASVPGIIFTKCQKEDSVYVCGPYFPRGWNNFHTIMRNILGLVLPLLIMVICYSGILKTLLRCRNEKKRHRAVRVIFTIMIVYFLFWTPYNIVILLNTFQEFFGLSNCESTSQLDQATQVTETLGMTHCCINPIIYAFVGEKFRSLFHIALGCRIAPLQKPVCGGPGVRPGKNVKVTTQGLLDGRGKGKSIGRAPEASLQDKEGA

Row | SMILES | CCR2 % ANTAGONISM [%] | IC50 [nM]
1 | O=C(NCCN1CCCC1)c1ccc(C[S+]([O-])c2ccc(Cl)cc2NS(=O)(=O)c2ccc(Cl)c(C(F)(F)F)c2)cc1 (stereo not shown) [4-({[4-chloro-2-({[4-chloro-3-(trifluoromethyl)phenyl]sulfonyl}amino)phenyl]sulfinyl}methyl)-N-[2-(pyrrolidin-1-yl)ethyl]benzamide] | 85 | 1430
2 | O=C(O)c1ccccc1C[S+]([O-])c1ccc(F)cc1NS(=O)(=O)c1cc2ccccc2o1 (stereo not shown) [2-[({2-[(1-benzofuran-2-ylsulfonyl)amino]-4-fluorophenyl}sulfinyl)methyl]benzoic acid] | 92 | 1850
3 | CCN(CC)C(=O)CCS(=O)(=O)c1ccc(Cl)cc1NS(=O)(=O)c1ccc(Cl)c(C(F)(F)F)c1 [3-{[4-chloro-2-({[4-chloro-3-(trifluoromethyl)phenyl]sulfonyl}amino)phenyl]sulfonyl}-N,N-diethylpropanamide] | 61 | 1860
4 | COC(=O)CCS(=O)(=O)c1ccc(Cl)cc1NS(=O)(=O)c1cc2ccccc2o1 [methyl 3-({2-[(1-benzofuran-2-ylsulfonyl)amino]-4-chlorophenyl}sulfonyl)propanoate] | 96 | 225
5 | N#Cc1ccc(NS(=O)(=O)c2cc3ccccc3o2)c(SCc2ccccc2)c1 [N-[2-(benzylsulfanyl)-4-cyanophenyl]-1-benzofuran-2-sulfonamide] | 79 | 604
6 | COC(=O)CCSc1ccc(Cl)cc1NS(=O)(=O)c1ccc(Cl)cc1F [methyl 3-[(4-chloro-2-{[(4-chloro-2-fluorophenyl)sulfonyl]amino}phenyl)sulfanyl]propanoate] | 79 | 995
7 | O=S(=O)(Nc1cc(Cl)ccc1[S+]([O-])Cc1ccccc1)c1ccc(Cl)c(C(F)(F)F)c1 (stereo not shown) [N-[2-(benzylsulfinyl)-5-chlorophenyl]-4-chloro-3-(trifluoromethyl)benzenesulfonamide] | 77 | 493
8 | O=C1CCc2cc(NS(=O)(=O)c3cc4ccccc4o3)c(S(=O)(=O)Cc3ccccc3)cc21 [N-[6-(benzylsulfonyl)-1-oxo-2,3-dihydro-1H-inden-5-yl]-1-benzofuran-2-sulfonamide] | 45 | 2240
9 | CC(C)(C)OC(=O)CNC(=O)c1ccc(CSc2ccc(Cl)cc2NS(=O)(=O)c2ccc(Cl)c(C(F)(F)F)c2)cc1 [tert-butyl ({[4-({[4-chloro-2-({[4-chloro-3-(trifluoromethyl)phenyl]sulfonyl}amino)phenyl]sulfanyl}methyl)phenyl]carbonyl}amino)acetate] | 43 | 657
10 | COC(=O)CCS(=O)(=O)c1ccc(Cl)cc1NS(=O)(=O)c1ccc(Cl)cc1F [methyl 3-[(4-chloro-2-{[(4-chloro-2-fluorophenyl)sulfonyl]amino}phenyl)sulfonyl]propanoate] | 82 | 212
11 | O=C(NCC[N+]1([O-])CCCC1)c1ccc(CSc2ccc(Cl)cc2NS(=O)(=O)c2ccc(Cl)c(C(F)(F)F)c2)cc1 [4-({[4-chloro-2-({[4-chloro-3-(trifluoromethyl)phenyl]sulfonyl}amino)phenyl]sulfanyl}methyl)-N-[2-(1-oxidopyrrolidin-1-yl)ethyl]benzamide] | 31 | 
12 | COC(=O)CCSc1ccc(Cl)cc1NS(=O)(=O)c1cc2ccccc2o1 [methyl 3-({2-[(1-benzofuran-2-ylsulfonyl)amino]-4-chlorophenyl}sulfanyl)propanoate] | 91 | 864
13 | O=C(O)CNC(=O)c1ccc(C[S+]([O-])c2ccc(Cl)cc2NS(=O)(=O)c2ccc(Cl)c(C(F)(F)F)c2)cc1 (stereo not shown) [({[4-({[4-chloro-2-({[4-chloro-3-(trifluoromethyl)phenyl]sulfonyl}amino)phenyl]sulfinyl}methyl)phenyl]carbonyl}amino)acetic acid] | 24 | 
14 | COC(=O)c1ccccc1CSc1ccc(Cl)cc1NS(=O)(=O)c1ccc(Cl)c(C(F)(F)F)c1 [methyl 2-({[4-chloro-2-({[4-chloro-3-(trifluoromethyl)phenyl]sulfonyl}amino)phenyl]sulfanyl}methyl)benzoate] | 88 | 2380
15 | O=C(NCCN1CCCC1)c1cccc(CS(=O)(=O)c2ccc(Cl)cc2NS(=O)(=O)c2ccc(Cl)c(C(F)(F)F)c2)c1 | 110 | 817
16 | O=C(O)c1cccc(CSc2ccc(Cl)cc2NS(=O)(=O)c2ccc(Cl)c(C(F)(F)F)c2)c1 [3-({[4-chloro-2-({[4-chloro-3-(trifluoromethyl)phenyl]sulfonyl}amino)phenyl]sulfanyl}methyl)benzoic acid] | 102 | 56
17 | CN(C)C(=O)c1ccccc1CSc1ccc(Cl)cc1NS(=O)(=O)c1ccc(Cl)c(C(F)(F)F)c1 [2-({[4-chloro-2-({[4-chloro-3-(trifluoromethyl)phenyl]sulfonyl}amino)phenyl]sulfanyl}methyl)-N,N-dimethylbenzamide] | 71 | 171

Row | SMILES | CCR2 % ANTAGONISM [%] | IC50 [nM]
18 | COC(=O)c1ccccc1C[S+]([O-])c1ccc(F)cc1NS(=O)(=O)c1cc2ccccc2o1 (stereo not shown) [methyl 2-[({2-[(1-benzofuran-2-ylsulfonyl)amino]-4-fluorophenyl}sulfinyl)methyl]benzoate] | 91 | 140
19 | COC(=O)c1ccccc1CS(=O)(=O)c1ccc(Cl)cc1NS(=O)(=O)c1ccc(Cl)c(C(F)(F)F)c1 [methyl 2-({[4-chloro-2-({[4-chloro-3-(trifluoromethyl)phenyl]sulfonyl}amino)phenyl]sulfonyl}methyl)benzoate] | 82 | 515
20 | CS(=O)(=O)Nc1cccc(C[S+]([O-])c2ccc(Cl)cc2NS(=O)(=O)c2cc3ccccc3o2)c1 (stereo not shown) [N-[5-chloro-2-({3-[(methylsulfonyl)amino]benzyl}sulfinyl)phenyl]-1-benzofuran-2-sulfonamide] | 77 | 2420
21 | CC(=O)Nc1cccc(C[S+]([O-])c2ccc(Cl)cc2NS(=O)(=O)c2cc3ccccc3o2)c1 (stereo not shown) [N-{3-[({2-[(1-benzofuran-2-ylsulfonyl)amino]-4-chlorophenyl}sulfinyl)methyl]phenyl}acetamide] | 95 | 
22 | O=C(O)CCSc1ccc(Cl)cc1NS(=O)(=O)c1cc2ccccc2o1 [3-({2-[(1-benzofuran-2-ylsulfonyl)amino]-4-chlorophenyl}sulfanyl)propanoic acid] | 99 | 46
23 | O=C(O)CSc1ccc(Cl)cc1NS(=O)(=O)c1cc2ccccc2o1 [({2-[(1-benzofuran-2-ylsulfonyl)amino]-4-chlorophenyl}sulfanyl)acetic acid] | 95 | 484
24 | O=C(CC[S+]([O-])c1ccc(Cl)cc1NS(=O)(=O)c1ccc(Cl)c(C(F)(F)F)c1)N1CCCC1 (stereo not shown) [4-chloro-N-(5-chloro-2-{[3-oxo-3-(pyrrolidin-1-yl)propyl]sulfinyl}phenyl)-3-(trifluoromethyl)benzenesulfonamide] | 72 | 1660
25 | O=C(O)c1ccccc1CS(=O)(=O)c1ccc(F)cc1NS(=O)(=O)c1cc2ccccc2o1 [2-[({2-[(1-benzofuran-2-ylsulfonyl)amino]-4-fluorophenyl}sulfonyl)methyl]benzoic acid] | 89 | 2470
26 | O=C(O)c1ccccc1CSc1ccc(Cl)cc1NS(=O)(=O)c1ccc(Cl)c(C(F)(F)F)c1 [2-({[4-chloro-2-({[4-chloro-3-(trifluoromethyl)phenyl]sulfonyl}amino)phenyl]sulfanyl}methyl)benzoic acid] | 99 | 79
27 | CCN(C)C(=O)CCSc1ccc(Cl)cc1NS(=O)(=O)c1ccc(Cl)cc1F [3-[(4-chloro-2-{[(4-chloro-2-fluorophenyl)sulfonyl]amino}phenyl)sulfanyl]-N-ethyl-N-methylpropanamide] | 49 | 
28 | O=C(O)c1ccccc1CS(=O)(=O)c1ccc(Cl)cc1NS(=O)(=O)c1cc2ccccc2o1 [2-[({2-[(1-benzofuran-2-ylsulfonyl)amino]-4-chlorophenyl}sulfonyl)methyl]benzoic acid] | 96 | 
29 | COC(=O)c1ccccc1C[S+]([O-])c1ccc(Cl)cc1NS(=O)(=O)c1ccc(Cl)c(C(F)(F)F)c1 (stereo not shown) [methyl 2-({[4-chloro-2-({[4-chloro-3-(trifluoromethyl)phenyl]sulfonyl}amino)phenyl]sulfinyl}methyl)benzoate] | 101 | 274
30 | COC(=O)c1ccccc1CS(=O)(=O)c1ccc(F)cc1NS(=O)(=O)c1cc2ccccc2o1 [methyl 2-[({2-[(1-benzofuran-2-ylsulfonyl)amino]-4-fluorophenyl}sulfonyl)methyl]benzoate] | 90 | 41
31 | NC(=O)c1ccccc1CSc1ccc(Cl)cc1NS(=O)(=O)c1ccc(Cl)c(C(F)(F)F)c1 [2-({[4-chloro-2-({[4-chloro-3-(trifluoromethyl)phenyl]sulfonyl}amino)phenyl]sulfanyl}methyl)benzamide] | 88 | 167
32 | O=C(CCSc1ccc(Cl)cc1NS(=O)(=O)c1ccc(Cl)c(C(F)(F)F)c1)N1CCCC1 [4-chloro-N-(5-chloro-2-{[3-oxo-3-(pyrrolidin-1-yl)propyl]sulfanyl}phenyl)-3-(trifluoromethyl)benzenesulfonamide] | 60 | 2290
33 | CCN(C)C(=O)CCS(=O)(=O)c1ccc(Cl)cc1NS(=O)(=O)c1ccc(Cl)cc1F [3-[(4-chloro-2-{[(4-chloro-2-fluorophenyl)sulfonyl]amino}phenyl)sulfonyl]-N-ethyl-N-methylpropanamide] | 87 | 2260
